Earlier results on 2 compounds are cited in US20050095200A1, “Prokinetic drugs assistance to small intestine imaging” (priority 2003, published 2005).

Like-named read-outs stand apart in the source and are kept apart here.

In one data set the test system is stomach. The conditions noted are these: for food emptying half-life from the stomach: oral 15 mg Metoclopramide 30 minutes prior to tagged food; for subjects with barium emptied from the stomach after 60 minutes: 3 minutes after intake of barium.
For data set [1] the following is noted: for half-life: in vivo.
For data set [2] the following is noted: Medline cross-correlation with 12,155 bleeding publications.
In another data set the test system is healthy subjects. The conditions noted are these: about 10 mg Cisapride by mouth.
Setting [3] is: healthy subjects, about 30 mg/day Cisapride by mouth (10x3).
The mark [4] stands for this setting: manometric measurement, intravenous injection of about 10 mg Cisapride.

Consider `CCN(CC)CCNC(=O)c1cc(Cl)c(N)cc1OC` [Metoclopramide, AMINO-4 CHLORO-5 N-(DIETHYLAMINO-2 ETHYL) METHOXY-2 BENZAMIDE], for which the safety profile result (intravenous about 10 mg and oral about 20 mg) is listed as “high safety profile”. In addition, the “emptying indigestible radio-opaque markers during the first hour” value with stomach (diabetics with gastroparesis, 10 mg Metoclopramide intravenously) is “lack of efficiency”. For the same compound, the “mean half-life of stomach emptying” value in the data set with stomach (diabetics with gastroparesis, semi-solid tagged substance, 30 mg Metoclopramide per day (3x10), down from 110) is 1.12 h. Besides, the “food emptying half-life from the stomach” value in the data set on stomach (healthy subjects) is 1.2 h; in the data set on stomach (patients with reflux esophagitis), 0.993 h. In addition, in the data set with stomach (intravenous 10 mg Metoclopramide), the “subjects with barium emptied from the stomach after 60 minutes” value is given as 93.5%. In the data set on small intestine (about single 20 mg dose of Metoclopramide), the “intensity of segmentary contraction” value was “may be insufficient”. For the same compound, in data set [1], the half-life result is “about 5 hours”. In data set [1] (oral), the “absorption when taken orally” value is “rapid and good”. For the same compound, the bio-availability entry in data set [1] (oral) is “about 77%”. For the same compound, the “graph of plasma concentration at various times after oral administration” value in data set [1] (oral dose of 10 mg) is recorded as “linear”. In addition, the “reports of bleeding from the digestive tract caused by the drug” value in data set [2] was “not a single description of bleeding damage”.

With `COc1cc(N)c(Cl)cc1C(=O)NC1CCN(CCCOc2ccc(F)cc2)CC1OC` (stereo not drawn) [Cisapride, CIS-4-AMINO-5-CHLORO-N-(1-(4-FLUOROPHENOXY) PROPYL)3 METHOXY-4-PIPERIDINYL)-2 METHOXYBENZAMIDE MONOHYDRATE], under “in vivo”, the “cases with abdominal discomfort” value is recorded as “about 16%” and the “cases with abdominal pain” value is reported as “about 4%”. In addition, in the data set with stomach (about 10 mg Cisapride by mouth), the “stomach emptying t1/2” value was “about 78 min” and the “stomach emptying time, effect” value is “not affected”. The “emptying indigestible radio-opaque markers during the first hour” value in the data set with stomach (diabetics with gastroparesis, 5 mg Cisapride intravenously) is on record as “lack of efficiency”. The “subjects with barium emptied from the stomach after 60 minutes” value with stomach (intravenous 8 mg Cisapride) was 85%. In addition, in the data set with duodenum and jejunum (setting [3]), the “change in the number of waves or in the wavelength” value is given as “no change”; the “increase of amplitude in mmHg in the duodenum and jejunum” value is “over 18.4%”. In addition, in the data set on duodenum and jejunum (setting [4]), the “contraction amplitude in the jejunum increased by” value was “about 43%” and the contraction frequency result was “increased”. The “decrease of transit time of solid food” value in the data set on healthy subjects is “about 20%”. For the same compound, the “intensity of segmentary contraction” value in the data set on small intestine (daily dose of about 10 to 15 mg Cisapride) is on record as “may be insufficient”. Besides, in data set [1], the half-life entry is “about 10 hours”. Also, the bio-availability result in data set [1] (oral) is recorded as “about 40%”. Also, the “reports of bleeding from the digestive tract caused by the drug” value in data set [2] is reported as “not a single report of bleeding from the digestive tract caused by Cisapride”.
